Source: patent US5808139A (Ligand Pharmaceuticals Incorporated, priority 1994, dated 1998)

Assays:
[1] = tested on: glucocorticoid, mineralocorticoid, androgen, estrogen, and retinoic acid receptors; orphan receptors; experiment: Cross-reactivity with other known intracellular receptor classes; format: cell-based
Protocol: Compound SO-9 was also tested with orphan receptors (which are receptors whose natural ligand is unknown).
The 3R and 3S diastereomeric acetates of cyclocymopol monomethyl ether were also individually tested for cross reactivity with the other known intracellular receptor classes. […] No antagonist activity was detected with either compound.

[2] = tested on: progesterone receptor (T47D cells); experiment: Antagonist assay in T47D (human breast cancer) cells (Tables 1 and 2); format: cell-based
[3] = tested on: endometrium of the uterus; experiment: Decidualization assay in pseudopregnant mice, oil-induced uterine weight gain; format: in vivo; details: 0.1 mg
Protocol: A successful pregnancy requires not only the effective collision and fusion of egg and spermatozoon, but also the provision of a receptive and supportive uterus. The preparation of the endometrium of the uterus for implantation (i.e. decidualization) starts well before the blastocyst arrives in the uterus.
Psuedopregnant mice (i.e. mated with vasectomized males) were used to establish the assay system. […] At 16 hours of Day 4, a small volume of sesame oil (10 μl) was introduced to the lumen of the right uterine horn to serve as a decidual stimulus. The left horn was left undisturbed to serve as an internal control. Autopsies were performed on Day 7 to assess uterine wet weight gains in the stimulated versus non-stimulated uterine horns.
Each of these compounds was intraluminally administered in an appropriate dosage on Day 4 along with the sesame oil administration.

IC50 ([2]; concentration required to reduce the maximal response by 50%, read-out: Potency (IC50), T47D cells) [nM] | SMILES | Cross-reactivity with other intracellular receptors [1] | Efficacy (% maximal response relative to RU-486), T47D cells ([2]; antagonist activity, relative to RU-486) [%] | Blocking of decidualization weight gain (in words) [3] | Net Uterine Weight Gain ([3]; intraluminal, autopsy Day 7, oil alone control 334.7 +/- 41.0) [mg]
385 | C=C1CC[C@@H](Br)C(C)(C)[C@@H]1Cc1cc(OC)c(Br)cc1O [SO-53, (3R)-cyclocymopol monomethyl ether] | not to cross-react with any of the other receptors | 85 | – | –
– | CC#C[C@]1(O)CC[C@H]2[C@@H]3CCC4=CC(=O)CCC4=C3[C@@H](c3ccc(N(C)C)cc3)C[C@@]21C [RU-486, reference compound] | – | – | completely blocked this decidualization weight gain | 9.53 ± 3.51
